Data from the supplement of paper PMC10307832.

Tests used:
Assay in all cases: relative viability (nuclei count vs DMSO), 5 days (fraction); higher = more cells survive
Venetoclax + Phenformin = compound: CC1(C)CCC(CN2CCN(c3ccc(C(=O)NS(=O)(=O)c4ccc(NCC5CCOCC5)c([N+](=O)[O-])c4)c(Oc4cnc5[nH]ccc5c4)c3)CC2)=C(c2ccc(Cl)cc2)C1 [Venetoclax] + N=C(N)NC(=N)NCCc1ccccc1 [Phenformin] (partner 250 µM)
Summary of the method: (§1)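 Five library-drug doses in √10 steps were combined with a fixed anchor-drug dose, or a single drug was given alone, by pin tool to lung cancer cell lines in 1536-well plates the day after seeding. Nuclei were stained and counted after 5 days. Relative viability is the nuclei count in treated wells over that in vehicle wells, taken as the median of duplicate plates.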

Selumetinib + Trametinib = compound: Cn1cnc2c(F)c(Nc3ccc(Br)cc3Cl)c(C(=O)NOCCO)cc21 [Selumetinib] + CC(=O)Nc1cccc(-n2c(=O)n(C3CC3)c(=O)c3c(Nc4ccc(I)cc4F)n(C)c(=O)c(C)c32)c1 [Trametinib] (partner 0.02 µM)
Summary of the method: as §1

Selumetinib + Pictilisib = compound: Cn1cnc2c(F)c(Nc3ccc(Br)cc3Cl)c(C(=O)NOCCO)cc21 [Selumetinib] + CS(=O)(=O)N1CCN(Cc2cc3nc(-c4cccc5[nH]ncc45)nc(N4CCOCC4)c3s2)CC1 [Pictilisib] (partner 1 µM)
Summary of the method: as §1

Selumetinib + Vorinostat = compound: Cn1cnc2c(F)c(Nc3ccc(Br)cc3Cl)c(C(=O)NOCCO)cc21 [Selumetinib] + O=C(CCCCCCC(=O)Nc1ccccc1)NO [Vorinostat] (partner 1 µM)
Summary of the method: as §1

| Cell Line | relative viability (Venetoclax + Phenformin; first compound 0.01 µM) | relative viability (Venetoclax + Phenformin; first compound 0.03162 µM) | relative viability (Venetoclax + Phenformin; first compound 0.1 µM) | relative viability (Venetoclax + Phenformin; first compound 0.3162 µM) | relative viability (Venetoclax + Phenformin; first compound 1 µM) | relative viability (Selumetinib + Trametinib; first compound 0.02 µM) | relative viability (Selumetinib + Trametinib; first compound 0.06325 µM) | relative viability (Selumetinib + Trametinib; first compound 0.2 µM) | relative viability (Selumetinib + Trametinib; first compound 0.6325 µM) | relative viability (Selumetinib + Pictilisib; first compound 0.02 µM) | relative viability (Selumetinib + Pictilisib; first compound 0.06325 µM) | relative viability (Selumetinib + Pictilisib; first compound 0.2 µM) | relative viability (Selumetinib + Pictilisib; first compound 0.6325 µM) | relative viability (Selumetinib + Vorinostat; first compound 0.02 µM) | relative viability (Selumetinib + Vorinostat; first compound 0.06325 µM) | relative viability (Selumetinib + Vorinostat; first compound 0.2 µM) | relative viability (Selumetinib + Vorinostat; first compound 0.6325 µM) |
| --- | --- | --- | --- | --- | --- | --- | --- | --- | --- | --- | --- | --- | --- | --- | --- | --- | --- |
| NCI-H2126 | 0.528 | 0.56 | 0.513 | 0.582 | 0.51 | 0.569 | 0.574 | 0.6 | 0.622 | 0.477 | 0.434 | 0.408 | 0.416 | 0.727 | 0.664 | 0.595 | 0.583 |
| COR-L23 | 0.42 | 0.442 | 0.413 | 0.43 | 0.423 | 0.555 | 0.469 | 0.586 | 0.511 | 0.84 | 0.699 | 0.784 | 0.713 | 0.554 | 0.537 | 0.485 | 0.456 |
| BEN | 0.26 | 0.306 | 0.302 | 0.273 | 0.264 | 1.06 | 1.07 | 1.14 | 1 | 0.632 | 0.545 | 0.461 | 0.534 | 0.527 | 0.558 | 0.59 | 0.632 |
| ChaGo-K-1 | 0.539 | 0.489 | 0.429 | 0.49 | 0.453 | 0.908 | 0.891 | 0.897 | 0.92 | 0.619 | 0.838 | 0.55 | 0.824 | 0.762 | 0.684 | 0.708 | 0.674 |
| LK-2 | 0.479 | 0.605 | 0.491 | 0.617 | 0.357 | 0.834 | 0.753 | 0.844 | 0.69 | 0.761 | 0.547 | 0.565 | 0.544 | 0.296 | 0.288 | 0.296 | 0.711 |
| NCI-H460 | 0.424 | 0.55 | 0.478 | 0.497 | 0.461 | 0.115 | 0.139 | 0.138 | 0.104 | 0.272 | 0.249 | 0.207 | 0.209 | 0.48 | 0.492 | 0.428 | 0.228 |
| NCI-H647 | 0.543 | 0.622 | 0.443 | 0.481 | 0.377 | 0.478 | 0.391 | 0.405 | 0.484 | 0.422 | 0.384 | 0.173 | 0.318 | 0.697 | 0.38 | 0.727 | 0.712 |
| NCI-H1734 | 0.396 | 0.446 | 0.326 | 0.411 | 0.358 | 0.708 | 0.73 | 0.707 | 0.723 | 0.486 | 0.363 | 0.438 | 0.438 | 0.787 | 0.814 | 0.694 | 0.85 |
| NCI-H2023 | 0.434 | 0.393 | 0.435 | 0.434 | 0.378 | 0.51 | 0.467 | 0.535 | 0.51 | 0.211 | 0.186 | 0.198 | 0.223 | 0.617 | 0.554 | 0.524 | 0.559 |
| NCI-H2009 | 0.48 | 0.459 | 0.439 | 0.446 | 0.337 | 0.285 | 0.273 | 0.29 | 0.257 | 0.614 | 0.355 | 0.266 | 0.221 | 0.675 | 0.717 | 0.65 | 0.377 |
| HCC-78 | 0.782 | 0.776 | 0.699 | 0.671 | 0.606 | 0.785 | 0.643 | 0.792 | 0.698 | 0.0694 | 0.181 | 0.134 | 0.216 | 0.433 | 0.358 | 0.413 | 0.482 |
